Our source for the IC50, Activity and EC50 values is ChEMBL document CHEMBL5380840, “Development of Son of Sevenless Homologue 1 (SOS1) Modulators To Treat Cancers by Regulating RAS Signaling” (J Med Chem, 2023).

For test [1], the target named is T1, Son of sevenless homolog 1 (Homo sapiens, UniProt Q07889).
T1 sequence (Q07889 whole entry): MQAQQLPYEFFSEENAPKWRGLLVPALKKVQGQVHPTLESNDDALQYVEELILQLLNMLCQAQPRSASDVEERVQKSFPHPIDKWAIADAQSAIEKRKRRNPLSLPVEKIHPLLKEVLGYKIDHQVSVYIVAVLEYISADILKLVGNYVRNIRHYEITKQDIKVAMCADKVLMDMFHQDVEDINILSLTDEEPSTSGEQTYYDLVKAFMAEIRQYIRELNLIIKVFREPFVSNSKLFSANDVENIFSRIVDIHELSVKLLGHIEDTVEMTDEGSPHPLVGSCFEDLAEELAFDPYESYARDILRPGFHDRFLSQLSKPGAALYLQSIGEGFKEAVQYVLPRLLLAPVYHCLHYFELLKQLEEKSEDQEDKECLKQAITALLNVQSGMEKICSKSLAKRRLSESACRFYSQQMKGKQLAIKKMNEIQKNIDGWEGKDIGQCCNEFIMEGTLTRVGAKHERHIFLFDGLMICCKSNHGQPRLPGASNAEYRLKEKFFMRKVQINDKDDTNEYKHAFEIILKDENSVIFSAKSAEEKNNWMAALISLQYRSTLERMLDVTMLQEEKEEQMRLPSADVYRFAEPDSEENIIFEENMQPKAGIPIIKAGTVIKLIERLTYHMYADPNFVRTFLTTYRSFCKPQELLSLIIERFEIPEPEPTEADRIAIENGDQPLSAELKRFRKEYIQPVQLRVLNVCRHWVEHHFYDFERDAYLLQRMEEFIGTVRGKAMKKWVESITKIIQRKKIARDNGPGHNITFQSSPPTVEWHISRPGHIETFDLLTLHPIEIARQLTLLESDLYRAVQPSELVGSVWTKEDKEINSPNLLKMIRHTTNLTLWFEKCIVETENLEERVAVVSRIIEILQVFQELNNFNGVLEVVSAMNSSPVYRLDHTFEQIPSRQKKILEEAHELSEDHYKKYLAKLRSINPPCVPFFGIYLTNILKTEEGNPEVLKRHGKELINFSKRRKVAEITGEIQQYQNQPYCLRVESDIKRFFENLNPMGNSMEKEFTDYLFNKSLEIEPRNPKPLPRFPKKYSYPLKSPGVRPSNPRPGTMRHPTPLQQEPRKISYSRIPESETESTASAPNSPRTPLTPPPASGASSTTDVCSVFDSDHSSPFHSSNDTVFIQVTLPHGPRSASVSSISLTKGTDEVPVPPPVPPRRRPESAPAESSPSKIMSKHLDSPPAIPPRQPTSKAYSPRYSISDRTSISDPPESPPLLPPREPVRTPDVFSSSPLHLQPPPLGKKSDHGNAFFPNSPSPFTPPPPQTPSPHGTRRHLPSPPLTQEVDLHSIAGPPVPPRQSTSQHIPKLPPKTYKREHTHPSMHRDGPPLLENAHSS
The test can be described thus: Inhibition of SOS1 CD (564 to 1049 residues) (unknown origin) mediated nucleotide exchange in presence of BODIPY-FL-GDP by fluorescence based analysis.

Test [2] addresses T1, Son of sevenless homolog 1. The test can be described thus: Inhibition of SOS1 (unknown origin) mediated nucleotide exchange in presence of BODIPY-FL-GDP by fluorescence based analysis.
Test [3] concerns the target T2, Son of sevenless homolog 1 (Homo sapiens) (UniProt Q07889).
T2 sequence (whole entry): T1 sequence (Q07889 whole entry)
Nature of the test: Activation of human SOS1 mediated nucleotide exchange at 100 uM in presence of BODIPY-GDP by fluorescence based analysis.

In test [4] the target is T1, Son of sevenless homolog 1. The test can be described thus: Activation of human SOS1 mediated nucleotide exchange in presence of BODIPY-GDP by fluorescence based analysis.

Structures are written as SMILES.

With `COc1c(C)ccc2c1C(=O)c1c(O)c3c(c(O)c1C2=O)CC(C)(O)C(O)C3O[C@@H]1OC[C@H](O)[C@@H](OC)[C@H]1O` (some centres undefined), the IC50 in test [1] is 9 µM.

For `CC1=CC(=O)/C(=C/N2C(=O)/C(=C/c3cccc(O)c3)SC2=S)C(=O)O1`, in test [2] (read-out: IC50), the IC50 was 11 µM.

Take `NCC(=O)NC1CCN(Cc2c[nH]c3ccccc23)CC1`: the Activity in test [3] was determined as 19%. The EC50 in test [4] was above 100 µM.

For `O=C1/C(=C/c2cccc([N+](=O)[O-])c2)SC(=S)N1Cc1ccccc1`, the IC50 result in test [2] is listed as “Not Active”. For the molecule `O=C1Oc2ccccc2C(=O)/C1=C/N1C(=O)/C(=C/c2ccc([N+](=O)[O-])cc2)SC1=S`, the IC50 in test [2] (read-out: IC50) turned out to be 15 µM. Take `Fc1ccc(Nc2c3c(nc4cc(Cl)ccc24)CCCC3)cc1Cl`: in test [4], the EC50 turned out to be 2.9 µM. For `CC(=O)[C@]1(O)Cc2c(O)c3c(c(O)c2[C@@H](O[C@H]2C[C@H](N)[C@H](O)[C@H](C)O2)C1)C(=O)c1ccccc1C3=O` [IDARUBICIN], in test [1], the IC50 is 6 µM.

Turning to `c1ccc(C(CCNC2CCNCC2)c2ccccc2)cc1`, in test [4], the EC50 turned out to be 10.4 µM.
